Results taken from the supplement of paper PMC10307832.

Tests used:
Experiment in all cases: relative viability (nuclei count vs DMSO), 5 days (fraction); higher = more cells survive
Shikonin = compound: CC(C)=CC[C@@H](O)C1=CC(=O)c2c(O)ccc(O)c2C1=O [Shikonin]
Summary of the method: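 Viability was read as treated-well nuclei divided by vehicle-well nuclei, using the median across plates. Lung cancer cell lines in 1536-well plates were kept overnight at 37 °C, pinned with five √10-spaced library-drug doses, and after 5 days were Hoechst-stained, imaged at 4× and counted in MetaXpress. Plates passed only with control CV below 25% and at least one doubling.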

Shikonin + Bortezomib = compound: CC(C)=CC[C@@H](O)C1=CC(=O)c2c(O)ccc(O)c2C1=O [Shikonin] + CC(C)C[C@H](NC(=O)[C@H](Cc1ccccc1)NC(=O)c1cnccn1)B(O)O [Bortezomib] (partner 0.002 µM)
Summary of the method: (§1)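 Lung cancer cell lines were seeded in 1536-well plates and dosed by pin tool the next day, with either a single drug or a fixed anchor-drug dose combined with five library-drug doses (not always all listed) spaced in √10 steps. Five days later, one step fixed the cells and stained their nuclei (final 0.05% Triton X-100, 1% formaldehyde, 1 ug/ml Hoechst), and nuclei were counted on 4× images. Relative viability is the nuclei count in treated wells divided by the count in vehicle wells, and each value is the median of duplicate plates.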

Shikonin + Pemetrexed = compound: CC(C)=CC[C@@H](O)C1=CC(=O)c2c(O)ccc(O)c2C1=O [Shikonin] + Nc1nc2[nH]cc(CCc3ccc(C(=O)N[C@@H](CCC(=O)O)C(=O)O)cc3)c2c(=O)[nH]1 [Pemetrexed] (partner 0.2 µM)
Summary of the method: as §1

[1] = compound: CC(C)N(CCCNC(=O)Nc1ccc(C(C)(C)C)cc1)C[C@H]1O[C@@H](n2ccc3c(N)ncnc32)[C@H](O)[C@@H]1O + N=C(N)NC(=N)NCCc1ccccc1 [Phenformin] (partner 250 µM)
Summary of the method: as §1

| Cell Line | relative viability (Shikonin; 0.01 µM) | relative viability (Shikonin; 0.1 µM) | relative viability (Shikonin; 0.3162 µM) | relative viability (Shikonin; 1 µM) | relative viability (Shikonin + Bortezomib; first compound 0.01 µM) | relative viability (Shikonin + Bortezomib; first compound 0.1 µM) | relative viability (Shikonin + Bortezomib; first compound 0.3162 µM) | relative viability (Shikonin + Bortezomib; first compound 1 µM) | relative viability (Shikonin + Pemetrexed; first compound 0.01 µM) | relative viability (Shikonin + Pemetrexed; first compound 0.1 µM) | relative viability (Shikonin + Pemetrexed; first compound 0.3162 µM) | relative viability (Shikonin + Pemetrexed; first compound 1 µM) | relative viability ([1]; first compound 0.08 µM) | relative viability ([1]; first compound 0.253 µM) | relative viability ([1]; first compound 0.8 µM) | relative viability ([1]; first compound 2.53 µM) | relative viability ([1]; first compound 8 µM) |
| --- | --- | --- | --- | --- | --- | --- | --- | --- | --- | --- | --- | --- | --- | --- | --- | --- | --- |
| NCI-H1734 | 0.935 | 1.15 | 1.02 | 0.991 | 1.09 | 0.999 | 0.819 | 0.909 | 0.413 | 0.479 | 0.434 | 0.382 | 0.38 | 0.331 | 0.398 | 0.4 | 0.397 |
| NCI-H1755 | 1.03 | 1.01 | 1.12 | 1 | 0.978 | 1.1 | 1.11 | 0.98 | 0.453 | 0.409 | 0.477 | 0.417 | 0.62 | 0.609 | 0.614 | 0.632 | 0.554 |
| NCI-H1792 | 0.987 | 0.991 | 0.922 | 1.22 | 1.14 | 0.858 | 1.12 | 1.04 | 0.819 | 0.82 | 0.689 | 0.958 | 0.374 |  | 0.223 | 0.418 | 0.472 |
| NCI-H1915 | 1.07 | 1.17 | 1.05 | 1.06 | 1.01 | 1.15 | 1.06 | 1.06 | 0.442 | 0.684 | 0.517 | 0.449 | 0.362 | 0.388 | 0.378 | 0.388 | 0.353 |
| NCI-H1975 | 0.956 | 0.946 | 0.955 | 1.05 | 0.273 | 0.365 | 0.452 | 0.363 | 0.315 | 0.298 | 0.286 | 0.283 | 0.393 | 0.387 | 0.202 | 0.393 | 0.338 |
| NCI-H1993 | 0.915 | 1.01 | 0.94 | 0.974 |  | 1.19 | 1.09 | 1.03 | 0.561 | 0.619 | 0.557 | 0.627 | 0.464 |  |  | 0.539 | 0.498 |
| NCI-H2009 | 0.996 | 1.11 | 0.981 | 0.727 | 1.07 | 1.11 | 0.904 | 0.289 | 1.11 | 1.06 | 1.09 | 1.05 | 0.489 | 0.496 | 0.475 | 0.474 | 0.426 |
| NCI-H2023 | 1.05 | 1.17 | 1.19 | 0.972 | 1.05 | 1.21 | 1.05 | 0.97 | 0.239 | 0.235 | 0.221 | 0.262 | 0.41 | 0.427 | 0.445 | 0.405 | 0.353 |
| NCI-H2085 | 0.992 | 1.05 | 0.985 | 0.983 | 1.08 | 1.02 | 1.01 | 0.922 | 0.88 | 0.93 | 0.868 | 0.872 | 0.693 | 0.592 | 0.816 | 0.789 | 0.631 |
| NCI-H2087 | 1.33 | 1.02 | 1.12 | 1.02 | 0.951 | 0.888 | 1.14 | 0.898 | 0.675 | 0.706 | 0.626 | 0.69 | 0.38 | 0.519 | 0.445 | 0.55 | 0.351 |
| NCI-H2126 | 1.01 | 1.07 | 1.07 | 1.03 | 1.16 | 1.23 | 1.1 | 1.19 | 0.758 | 0.716 | 0.777 | 0.656 | 0.523 | 0.529 | 0.52 | 0.534 | 0.496 |
| NCI-H2228 | 1.07 | 0.991 | 1.12 | 1.17 | 0.928 | 0.877 | 1.25 | 0.981 | 0.314 | 0.355 | 0.38 | 0.355 | 0.403 | 0.297 | 0.298 | 0.274 | 0.231 |
| NCI-H2347 | 0.971 | 1.07 | 1.06 | 0.984 | 1.09 | 1.11 | 0.848 | 1.23 | 0.471 | 0.479 | 0.402 | 0.44 | 0.536 | 0.404 | 0.369 | 0.488 | 0.254 |
| NCI-H2405 | 0.998 | 1.04 | 1.08 | 1.02 | 0.963 | 0.974 | 1.01 | 1 | 1.05 | 1.31 | 1.06 | 1.13 | 0.393 | 0.324 | 0.419 | 0.409 | 0.345 |
| NCI-H3122 | 1.03 | 1.07 | 1.07 | 1.04 | 1.06 | 1.13 | 1.01 | 1.06 | 0.215 | 0.219 | 0.209 | 0.209 | 0.39 | 0.384 | 0.367 | 0.366 | 0.358 |
